These results are taken from ChEMBL document CHEMBL1909046, “DrugMatrix in vitro pharmacology data”.

Assay [1] has as its target T1, Alpha-1D adrenergic receptor (Homo sapiens, UniProt P25100). Further: in other assays of this panel Not Active means under 50% inhibition at 10 µM.
T1 sequence (P25100 whole entry): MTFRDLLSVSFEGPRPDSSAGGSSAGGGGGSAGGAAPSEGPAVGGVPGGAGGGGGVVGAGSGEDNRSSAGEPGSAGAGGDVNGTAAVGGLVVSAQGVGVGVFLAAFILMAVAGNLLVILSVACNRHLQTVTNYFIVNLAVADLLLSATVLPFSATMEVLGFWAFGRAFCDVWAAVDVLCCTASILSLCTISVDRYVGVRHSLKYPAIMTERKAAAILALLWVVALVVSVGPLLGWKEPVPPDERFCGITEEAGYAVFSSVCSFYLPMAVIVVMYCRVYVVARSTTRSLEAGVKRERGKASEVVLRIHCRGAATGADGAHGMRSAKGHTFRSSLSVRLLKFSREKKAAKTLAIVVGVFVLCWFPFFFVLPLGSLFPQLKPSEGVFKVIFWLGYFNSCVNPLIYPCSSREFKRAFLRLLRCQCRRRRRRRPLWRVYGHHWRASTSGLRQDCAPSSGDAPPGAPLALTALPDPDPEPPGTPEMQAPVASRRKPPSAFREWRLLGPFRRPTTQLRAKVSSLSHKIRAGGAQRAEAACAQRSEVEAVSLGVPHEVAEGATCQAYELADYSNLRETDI
The class given is cell membranes, HEK293, Membrane.

Assay [2] concerns the target Sodium-dependent noradrenaline transporter (Homo sapiens, UniProt P23975). The assay is described as follows: DRUGMATRIX: Norepinephrine Transporter radioligand binding (ligand: [125I] RTI-55). Format: cell membranes, MDCK, Membrane. The conditions noted are these: mdck; Not Active = under 50% inhibition at 10 µM.
Assay [3] can be described thus: DRUGMATRIX: beta-Lactamase enzyme inhibition (substrate: Nitrocefin). Also on record: species or system Bacillus cereus. The conditions noted are these: Not Active = under 50% inhibition at 10 µM.
Assay [4] concerns the target T2, C-X-C chemokine receptor type 2 (Homo sapiens, UniProt P25025). Further: in other assays of this panel Not Active means under 50% inhibition at 10 µM.
T2 sequence (P25025 whole entry): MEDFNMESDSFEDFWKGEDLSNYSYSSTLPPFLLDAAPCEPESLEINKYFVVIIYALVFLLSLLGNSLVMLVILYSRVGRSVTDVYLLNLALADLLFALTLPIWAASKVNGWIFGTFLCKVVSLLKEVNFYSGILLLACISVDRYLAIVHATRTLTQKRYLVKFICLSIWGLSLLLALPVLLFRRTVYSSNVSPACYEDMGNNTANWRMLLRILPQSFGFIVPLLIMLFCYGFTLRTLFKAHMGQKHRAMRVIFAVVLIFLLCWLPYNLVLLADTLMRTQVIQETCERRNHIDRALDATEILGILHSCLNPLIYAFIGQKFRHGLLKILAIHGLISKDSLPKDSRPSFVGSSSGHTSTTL
The class given is cell membranes, Membrane. The conditions noted are these: cho-k1.

A further assay addresses Nitric oxide synthase 1 (Rattus norvegicus, UniProt P29476). The class given is tissue-based, Cerebellum.
Assay [5] is described as follows: DRUGMATRIX: Phorbol Ester radioligand binding (ligand: [3H] PDBu). The class given is cell membranes, Mus musculus, ICR, Brain, Membrane. The conditions noted are these: Not Active = under 50% inhibition at 10 µM.
For a further assay, the target named is T3, Cathepsin G (Homo sapiens, UniProt P08311).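 Further: inhibition of Cathepsin G enzyme activity, tested on an AMC-conjugated peptide substrate; in other assays of this panel Not Active means under 50% inhibition at 10 µM.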
T3 sequence (P08311 whole entry): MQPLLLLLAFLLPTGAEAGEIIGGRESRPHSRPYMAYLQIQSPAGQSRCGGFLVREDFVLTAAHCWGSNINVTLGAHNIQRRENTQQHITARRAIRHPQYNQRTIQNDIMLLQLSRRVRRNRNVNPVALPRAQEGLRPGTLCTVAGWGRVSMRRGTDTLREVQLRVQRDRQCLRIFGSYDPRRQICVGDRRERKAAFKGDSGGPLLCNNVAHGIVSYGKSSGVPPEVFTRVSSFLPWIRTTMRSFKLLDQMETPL
Format: tissue-based. The conditions noted are these: neutrophil.

What is called IC50 is the concentration at which inhibition is half-maximal. The term Ki denotes the equilibrium dissociation constant of an inhibitor or competing ligand from its target.

Chain of Nitric oxide synthase 1 (P29476 whole entry): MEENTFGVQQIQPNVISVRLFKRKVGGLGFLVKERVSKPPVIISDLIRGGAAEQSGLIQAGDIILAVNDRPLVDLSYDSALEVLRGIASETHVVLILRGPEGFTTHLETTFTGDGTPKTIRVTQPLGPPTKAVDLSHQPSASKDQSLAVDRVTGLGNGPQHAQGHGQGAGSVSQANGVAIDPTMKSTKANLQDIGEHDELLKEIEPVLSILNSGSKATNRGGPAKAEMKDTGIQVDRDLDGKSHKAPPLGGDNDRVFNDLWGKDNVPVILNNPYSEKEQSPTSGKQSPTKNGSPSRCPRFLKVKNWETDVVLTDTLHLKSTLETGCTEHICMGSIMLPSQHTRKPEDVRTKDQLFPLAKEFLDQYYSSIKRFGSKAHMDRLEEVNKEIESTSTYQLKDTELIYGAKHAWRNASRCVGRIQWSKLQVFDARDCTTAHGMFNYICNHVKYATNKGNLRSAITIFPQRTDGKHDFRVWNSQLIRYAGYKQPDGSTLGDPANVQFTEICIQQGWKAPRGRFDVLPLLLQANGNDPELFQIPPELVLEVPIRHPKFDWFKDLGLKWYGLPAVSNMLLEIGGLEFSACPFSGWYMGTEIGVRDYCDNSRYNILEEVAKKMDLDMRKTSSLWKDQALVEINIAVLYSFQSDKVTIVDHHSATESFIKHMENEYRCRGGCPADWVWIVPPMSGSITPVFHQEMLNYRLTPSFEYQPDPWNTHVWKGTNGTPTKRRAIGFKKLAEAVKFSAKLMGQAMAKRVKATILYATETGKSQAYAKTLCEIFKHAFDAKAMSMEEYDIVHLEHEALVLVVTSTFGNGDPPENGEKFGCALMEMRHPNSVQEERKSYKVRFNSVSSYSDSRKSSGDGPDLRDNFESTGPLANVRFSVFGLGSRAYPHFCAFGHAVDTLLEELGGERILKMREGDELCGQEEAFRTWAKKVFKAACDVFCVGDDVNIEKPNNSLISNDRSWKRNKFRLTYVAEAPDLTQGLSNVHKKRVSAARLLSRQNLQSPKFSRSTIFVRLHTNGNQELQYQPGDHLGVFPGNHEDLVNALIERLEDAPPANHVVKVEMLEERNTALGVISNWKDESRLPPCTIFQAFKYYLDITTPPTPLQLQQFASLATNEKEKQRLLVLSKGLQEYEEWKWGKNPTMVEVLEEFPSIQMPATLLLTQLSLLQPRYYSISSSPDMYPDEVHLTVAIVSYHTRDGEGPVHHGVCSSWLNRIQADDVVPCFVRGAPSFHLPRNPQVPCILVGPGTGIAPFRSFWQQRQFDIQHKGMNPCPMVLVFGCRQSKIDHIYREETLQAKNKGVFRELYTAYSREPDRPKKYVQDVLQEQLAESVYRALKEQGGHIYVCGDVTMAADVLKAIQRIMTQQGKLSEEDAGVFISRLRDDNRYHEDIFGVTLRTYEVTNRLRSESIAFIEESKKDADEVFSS
Chain of Sodium-dependent noradrenaline transporter (P23975 whole entry): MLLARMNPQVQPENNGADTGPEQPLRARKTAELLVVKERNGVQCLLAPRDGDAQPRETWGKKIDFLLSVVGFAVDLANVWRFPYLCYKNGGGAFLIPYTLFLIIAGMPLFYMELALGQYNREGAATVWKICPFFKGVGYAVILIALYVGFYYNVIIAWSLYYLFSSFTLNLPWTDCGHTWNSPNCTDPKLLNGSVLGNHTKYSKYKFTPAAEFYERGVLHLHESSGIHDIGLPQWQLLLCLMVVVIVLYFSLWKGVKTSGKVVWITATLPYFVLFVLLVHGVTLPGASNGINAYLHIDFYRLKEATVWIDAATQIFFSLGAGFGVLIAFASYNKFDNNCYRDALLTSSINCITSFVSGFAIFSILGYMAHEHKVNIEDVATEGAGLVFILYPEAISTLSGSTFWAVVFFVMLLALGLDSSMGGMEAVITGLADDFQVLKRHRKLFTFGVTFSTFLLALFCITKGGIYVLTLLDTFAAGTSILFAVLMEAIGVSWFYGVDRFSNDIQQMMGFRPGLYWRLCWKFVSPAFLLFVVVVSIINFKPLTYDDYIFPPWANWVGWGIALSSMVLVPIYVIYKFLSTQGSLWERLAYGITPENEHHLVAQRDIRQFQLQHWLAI

Take `C[S+](C)[O-]` [DIMETHYL SULFOXIDE]: the IC50 entry (in assay [1] (hek293); in assay [2]; in assay [3]; in assay [4]; against Nitric oxide synthase 1; in assay [5]) was “Not Active” in each case. Also, at Cathepsin G, the half-inhibitory concentration (IC50) entry is “Not Active”. In addition, the Ki entry in assay [3] and in assay [5] was “Not Active” each time.
Regarding `CC1=NN(c2ccccc2)C(=O)C1` [EDARAVONE], the IC50 entry (in assay [1] (hek293); in assay [2]; in assay [3]; in assay [4]; at Nitric oxide synthase 1; in assay [5]) was “Not Active” each time. Besides, on Cathepsin G, the IC50 result is “Not Active”. The Ki entry in assay [3] and in assay [5] was “Not Active” each time.
Take `CC(C)C[C@H]1C(=O)N2CCC[C@H]2[C@]2(O)O[C@](NC(=O)[C@@H]3C=C4c5cccc6[nH]cc(c56)C[C@H]4N(C)C3)(C(C)C)C(=O)N12` [ERGOCRYPTINE]: the IC50 in assay [1] (read-out: IC50) is 0.048 µM; in assay [2], “Not Active”; in assay [3] it was “Not Active”; in assay [4], “Not Active”; against Nitric oxide synthase 1, “Not Active”; in assay [5], “Not Active”. In addition, the IC50 result at Cathepsin G is “Not Active”. The Ki in assay [1] (read-out: Ki) is 0.024 µM; in assay [3] it was “Not Active”; in assay [5], “Not Active”.
On to `C[C@]12CC[C@@H]3c4ccc(O)cc4CC[C@H]3[C@@H]1C[C@@H](O)[C@@H]2O` [ESTRIOL], for which the IC50 result (in assay [1] (hek293); in assay [2]; in assay [3]; in assay [4]; at Nitric oxide synthase 1; in assay [5]) was “Not Active” each time. For the same compound, the IC50 result against Cathepsin G is “Not Active”. Further, the inhibitory constant (Ki) entry in assay [3] and in assay [5] was “Not Active” in each case.
With `C#C[C@]1(O)CC[C@H]2[C@@H]3CCC4=CC(=O)CC[C@]4(C)[C@H]3CC[C@@]21C` [ETHISTERONE], the IC50 entry (in assay [1] (hek293); in assay [2]; in assay [3]; in assay [4]; against Nitric oxide synthase 1; in assay [5]) was “Not Active” each time. For the same compound, at Cathepsin G, the 50% inhibitory concentration (IC50) result is reported as “Not Active”. Also, the Ki entry in assay [3] and in assay [5] was “Not Active” in each case.
Consider `CC(O)(P(=O)(O)O)P(=O)(O)O` [ETIDRONIC ACID], for which the IC50 entry (in assay [1] (hek293); in assay [2]; in assay [3]; in assay [4]; against Nitric oxide synthase 1; in assay [5]) was “Not Active” in each case. Further, at Cathepsin G, the IC50 entry was “Not Active”. The Ki result in assay [3] and in assay [5] was “Not Active” in each case.
For `CC(C)(C(=O)O)c1ccc(C(O)CCCN2CCC(C(O)(c3ccccc3)c3ccccc3)CC2)cc1` (centres undefined) [FEXOFENADINE], the IC50 entry (in assay [1] (hek293); in assay [2]; in assay [3]; in assay [4]; against Nitric oxide synthase 1; in assay [5]) was “Not Active” each time. For the same compound, the IC50 entry on Cathepsin G is given as “Not Active”. For the same compound, the Ki result in assay [3] and in assay [5] was “Not Active” each time.
For `CN1CCN(c2c(F)cc3c(=O)c(C(=O)O)cn(CCF)c3c2F)CC1` [FLEROXACIN], the 50% inhibitory concentration (IC50) entry (in assay [1] (hek293); in assay [2]; in assay [3]; in assay [4]; on Nitric oxide synthase 1; in assay [5]) was “Not Active” each time. In addition, the 50% inhibitory concentration (IC50) result at Cathepsin G is “Not Active”. Besides, the inhibition constant (Ki) result in assay [3] and in assay [5] was “Not Active” each time.
With `O=c1[nH]c(=O)n([C@H]2C[C@H](O)[C@@H](CO)O2)cc1F` [FLOXURIDINE], the IC50 entry (in assay [1] (hek293); in assay [2]; in assay [3]; in assay [4]; against Nitric oxide synthase 1; in assay [5]) was “Not Active” in each case. At Cathepsin G, the IC50 result is recorded as “Not Active”. For the same compound, the Ki entry in assay [3] and in assay [5] was “Not Active” each time.
Consider `COC(=O)Nc1nc2cc(C(=O)c3ccc(F)cc3)ccc2[nH]1` [FLUBENDAZOLE], for which the IC50 entry (in assay [1] (hek293); in assay [2]; in assay [3]; in assay [4]; against Nitric oxide synthase 1; in assay [5]) was “Not Active” in each case. The IC50 result at Cathepsin G was “Not Active”. Also, the Ki result in assay [3] and in assay [5] was “Not Active” in each case.
Turning to `CC(=O)OCC(=O)[C@@]1(O)CC[C@H]2[C@@H]3CCC4=CC(=O)CC[C@]4(C)[C@@]3(F)[C@@H](O)C[C@@]21C` [FLUDROCORTISONE ACETATE], the IC50 result (in assay [1] (hek293); in assay [2]; in assay [3]; in assay [4]; against Nitric oxide synthase 1; in assay [5]) was “Not Active” in each case. Further, the IC50 entry against Cathepsin G was “Not Active”. Also, the Ki entry in assay [3] and in assay [5] was “Not Active” each time.
As for `CCOC(=O)c1ncn2c1CN(C)C(=O)c1cc(F)ccc1-2` [FLUMAZENIL], the IC50 result (in assay [1] (hek293); in assay [2]; in assay [3]; in assay [4]; against Nitric oxide synthase 1; in assay [5]) was “Not Active” throughout. In addition, the concentration for half-maximal inhibition (IC50) result at Cathepsin G is “Not Active”. Also, the Ki result in assay [3] and in assay [5] was “Not Active” each time.
As to `CC(=O)OCC(=O)[C@@]12OC(C)(C)O[C@@H]1C[C@H]1[C@@H]3C[C@H](F)C4=CC(=O)C=C[C@]4(C)[C@@]3(F)[C@@H](O)C[C@@]12C` [FLUOCINONIDE], the IC50 entry (in assay [1] (hek293); in assay [2]; in assay [3]; in assay [4]; at Nitric oxide synthase 1; in assay [5]) was “Not Active” throughout. Also, the half-inhibitory concentration (IC50) result at Cathepsin G is listed as “Not Active”. The Ki entry in assay [3] and in assay [5] was “Not Active” throughout.
For the compound `O=C(O)P(=O)(O)O` [FOSCARNET], the IC50 result (in assay [1] (hek293); in assay [2]; in assay [3]; in assay [4]; against Nitric oxide synthase 1; in assay [5]) was “Not Active” in each case. For the same compound, at Cathepsin G, the IC50 result was “Not Active”. Also, the Ki result in assay [3] and in assay [5] was “Not Active” in each case.
Turning to `Cc1ccc(C)c(OCCCC(C)(C)C(=O)O)c1` [GEMFIBROZIL], the IC50 entry (in assay [1] (hek293); in assay [2]; in assay [3]; in assay [4]; against Nitric oxide synthase 1; in assay [5]) was “Not Active” in each case. For the same compound, on Cathepsin G, the IC50 entry is on record as “Not Active”. The Ki result in assay [3] and in assay [5] was “Not Active” in each case.
For `O=c1c(-c2ccc(O)cc2)coc2cc(O)cc(O)c12` [GENISTEIN], the IC50 result (in assay [1] (hek293); in assay [2]; in assay [3]; in assay [4]; against Nitric oxide synthase 1; in assay [5]) was “Not Active” each time. Further, the IC50 entry on Cathepsin G is on record as “Not Active”. The Ki entry in assay [3] and in assay [5] was “Not Active” each time.
As to `CCC1=C(C)CN(C(=O)NCCc2ccc(S(=O)(=O)NC(=O)N[C@H]3CC[C@H](C)CC3)cc2)C1=O` [GLIMEPIRIDE], the IC50 result (in assay [1] (hek293); in assay [2]; in assay [3]; in assay [4]; against Nitric oxide synthase 1; in assay [5]) was “Not Active” in each case. Further, on Cathepsin G, the IC50 result is “Not Active”. For the same compound, the Ki entry in assay [3] and in assay [5] was “Not Active” in each case.
